Source: ChEMBL document CHEMBL1201862, “PubChem BioAssay data set” (2004)
Counter-ions that a name gives are not always drawn.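 Step 1: Grow cells in 96-well plates. Step 2: Expose to compound for 48 hours at 5 concentrations. Step 3: Interpolate endpoints linearly; if unreached, use highest concentration. At the GI50, growth is halved.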 Activity calls are given as the source filed them. No stated cut-off is given here; in the data, active = GI50 up to about 1.1 µM and inactive = higher.

What was measured:
Assay in all cases: NCI anticancer screen, dose series, 48 h
[1] = test system: LOX IMVI
[2] = test system: NCI-H522
[3] = test system: IGROV-1
[4] = test system: HOP-92
[5] = test system: 786-0
[6] = test system: OVCAR-3
[7] = test system: MCF7
[8] = test system: COLO 205
[9] = test system: MOLT-4
[10] = test system: NCI-H460
[11] = test system: UO-31
[12] = test system: U-251
[13] = test system: EKVX
[14] = test system: HCC 2998
[15] = test system: SR
[16] = test system: OVCAR-4
[17] = test system: A549
[18] = test system: HT-29
[19] = test system: NCI-H226
[20] = test system: PC-3

Measured: GI50

O=C(O)c1nn(-c2ccc(Cl)cc2)c2c1C(=O)c1ccccc1C2=O
inactive: [1] > 100 µM | [2] > 100 µM | [3] > 100 µM | [4] > 100 µM | [5] > 100 µM | [6] 24.7 µM | [7] > 100 µM | [8] > 100 µM | [9] 22 µM | [10] 62.1 µM | [11] > 100 µM | [12] 55.7 µM | [13] > 100 µM | [14] 43.1 µM | [15] 21.2 µM | [16] > 100 µM | [17] > 100 µM | [18] > 100 µM | [19] > 100 µM | [20] > 100 µM

CN1CCC(CN2c3ccccc3Sc3ccccc32)C1 (stereo unspecified) [METHDILAZINE HYDROCHLORIDE]
inactive: [1] 15 µM | [2] 16.7 µM | [3] 17.3 µM | [4] 12.8 µM | [5] 14.7 µM | [6] 14.2 µM | [7] 17.2 µM | [8] 11.5 µM | [9] 16.3 µM | [10] 13.9 µM | [11] 14.8 µM | [12] 13.7 µM | [13] 16.8 µM | [14] 10.1 µM | [15] 2.7 µM | [16] 13.9 µM | [17] 16.2 µM | [18] 10.9 µM | [19] 19.5 µM | [20] 12.4 µM

CC(=O)OCC1OC(OCCCOP(=O)(OCCC#N)OCC2OC(n3cnc4c(N)ncnc43)C(OC(=O)c3ccccc3)C2OC(=O)c2ccccc2)C(OC(C)=O)C(OC(C)=O)C1OC(C)=O (stereo unspecified)
inactive: [1] > 100 µM | [2] 16.3 µM | [4] > 100 µM | [5] > 100 µM | [6] > 100 µM | [7] > 100 µM | [8] > 100 µM | [9] > 100 µM | [10] > 100 µM | [11] > 100 µM | [12] > 100 µM | [13] > 100 µM | [14] > 100 µM | [15] > 100 µM | [16] > 100 µM | [17] > 100 µM | [18] > 100 µM | [19] > 100 µM | [20] > 100 µM

CCOC(=O)c1c(SCCN2CCCCC2)n(-c2ccccc2)c(=S)n(-c2ccccc2)c1=O
inactive: [1] 12.8 µM | [2] 16.7 µM | [3] > 10 µM | [4] 16.3 µM | [5] 14.8 µM | [6] 9.57 µM | [7] 5.85 µM | [8] 11.7 µM | [9] 2.28 µM | [10] 33.9 µM | [11] 18.2 µM | [12] 28.6 µM | [14] > 38.9 µM | [15] 2.72 µM | [16] 17.6 µM | [17] > 54 µM | [18] 15.3 µM | [19] 12.3 µM | [20] 14.6 µM

COC(=O)c1cc(C#Cc2cc(OC)ccc2OC)ccc1OC
inactive: [1] 32.1 µM | [2] 37.8 µM | [3] 53.2 µM | [4] 22.9 µM | [5] 51.3 µM | [7] 36.5 µM | [8] 24.5 µM | [9] 19.3 µM | [10] 56.8 µM | [11] 40.1 µM | [12] 95.1 µM | [13] 40.9 µM | [14] > 100 µM | [15] 26.8 µM | [16] 46.7 µM | [17] 34.8 µM | [18] 38.5 µM | [19] 67 µM | [20] 40.7 µM

CCN(CC)c1ccc(/C=C/C2=NN(c3cccc(S(=O)(=O)O)c3)C3(C2)SCC(=O)N3c2nc3ccccc3s2)cc1 (stereo unspecified)
inactive: [1] 45.6 µM | [2] 18.5 µM | [3] 41.7 µM | [4] 44.9 µM | [5] 63.8 µM | [7] 25.6 µM | [8] 24.1 µM | [9] 22 µM | [10] 36.5 µM | [11] 29.9 µM | [12] 25.1 µM | [13] 36 µM | [14] 35.2 µM | [15] 26.4 µM | [16] 23.4 µM | [17] 32.7 µM | [18] 36.6 µM | [19] 16.8 µM | [20] 25.8 µM

C/C(=C\COc1cc(O)c2c(c1)C(=O)c1cc(C)cc(O)c1C2=O)CCC1OC1(C)C (stereo unspecified)
inactive: [1] > 100 µM | [2] 69.8 µM | [3] 68.9 µM | [4] 29.4 µM | [5] 58.2 µM | [6] > 100 µM | [7] 38.4 µM | [8] > 100 µM | [9] 7.85 µM | [10] 10.3 µM | [11] > 100 µM | [12] 63.8 µM | [13] > 100 µM | [14] > 100 µM | [15] 13.9 µM | [16] 37.8 µM | [17] 85.5 µM | [18] > 100 µM | [20] > 100 µM

CN(C)CCCNC(=O)c1cc(NC(=O)c2cc(NC(=O)[C@H]3C[C@@H]3C(=O)Nc3cc(C(=O)Nc4cc(C(=O)NCCCN(C)C)n(C)c4)n(C)c3)cn2C)cn1C
inactive: [1] > 100 µM | [2] 65 µM | [3] > 100 µM | [4] 3.24 µM | [5] > 100 µM | [7] > 100 µM | [8] > 100 µM | [9] > 100 µM | [10] > 100 µM | [12] > 100 µM | [13] > 100 µM | [14] > 100 µM | [15] > 100 µM | [16] > 100 µM | [17] > 100 µM | [18] > 100 µM | [19] > 100 µM | [20] > 100 µM

O=C1C=C(c2ccccc2)O/C1=C\C(=O)c1ccc(Cl)cc1
inactive: [1] 16.3 µM | [2] 20.7 µM | [3] 17.1 µM | [4] 19.2 µM | [5] 14.3 µM | [6] 22.1 µM | [7] 17.3 µM | [8] 16.3 µM | [9] 20.5 µM | [10] > 100 µM | [11] 20.7 µM | [12] 16.3 µM | [13] > 100 µM | [14] 28.3 µM | [15] 11.3 µM | [16] 21.9 µM | [18] 3.58 µM | [19] 17.4 µM | [20] 16.7 µM

COc1cc(OC)c2c(O)c(S(=O)(=O)c3ccc(C)cc3)c(=O)oc2c1
inactive: [2] > 100 µM | [3] > 100 µM | [4] > 100 µM | [5] > 100 µM | [6] > 100 µM | [7] > 100 µM | [8] > 100 µM | [9] > 100 µM | [10] > 100 µM | [11] > 100 µM | [12] 96.6 µM | [13] > 100 µM | [14] > 100 µM | [15] > 100 µM | [16] > 100 µM | [17] > 100 µM | [18] > 100 µM | [19] > 100 µM | [20] > 100 µM
